Results: patent US8158152B2, “Lyophilization process and products obtained thereby” (SciDose LLC, priority 2005, dated 2012)

How the values were obtained:
[1] = cited from earlier work
[2] = Solubility as stated in words; type: physicochemical; details: in the presence of small quantities of HCl

SMILES	solubility in ethanol ([1]; ethanol)	solubility in water ([1]; water)	solubility in non-aqueous solvents (e.g. THF) [2]	solubility in solvents, as generally considered ([1]; general knowledge)
O=P1(N(CCCl)CCCl)NCCCO1 (stereo not shown) [cyclophosphamide]	highly soluble	sparingly soluble	–	–
CCC(C)n1ncn(-c2ccc(N3CCN(c4ccc(OCC5COC(Cn6cncn6)(c6ccc(Cl)cc6Cl)O5)cc4)CC3)cc2)c1=O (stereo not shown) [itraconazole]	–	–	high concentrations of itraconazole can be dissolved	soluble in methylene chloride only
